The text below walks through data of publication PMC4122966, “Novel VCP modulators mitigate major pathologies of rd10, a mouse model of retinitis pigmentosa” (Scientific Reports, 2014).

Each structure is given as a SMILES string.

Data set [1] relates to HeLa cells. The experiment in a line: cell death-inducing activity. Type of data set: cell-based. The note with it: 50 μM, 24 hours. An excerpt: (§1) Figure 1 Structures and characterization of KUSs, novel VCP modulators. (a) Structures and IC50 values of KUS11, KUS31, KUS69, KUS94, KUS121, and KUS187. […] (b) ATPase activity assays of recombinant human […], comparing KUSs and DBeQ. (c) Immunoblot analysis of ubiquitinated proteins, an ER stress marker (CHOP), and an autophagy indicator (LC3), comparing KUSs and DBeQ. As a control, MG132, a proteasome inhibitor, was used for the analysis. Actin served as a loading control. Complete scans of the different blots are presented in Supplementary Fig. 7. (d) Comparison of KUSs and DBeQ for cell death-inducing activities. HeLa cells were treated with 50 μM DBeQ or KUSs for 24 hours. […]

For data set [2], the system named is essentially all tested cultured cells. In words: cellular toxicity on cultured cells. It counts as cell-based. The conditions noted are these: up to 50 μM.
In data set [3] the test system is HeLa cells. In words: immunocytochemistry of laminin γ1 aggregation in tunicamycin-treated cells. It counts as cell-based. The conditions noted are these: HeLa, Tm 0.5 μg/ml, 5 hours, 50 μM KUS. On the procedure:
Figure 4 KUSs and ATP each prevented a decrease of ATP levels and ameliorated ER stress in tunicamycin-treated cells. (a) Immunocytochemical analyses of HeLa cells by an anti-laminin γ1 antibody. HeLa cells were treated with 0.5 μg/ml of tunicamycin (Tm) for 5 hours in the presence of KUSs (50 μM), ATP (0.1, 0.3, and 1 mM), methylpyruvate (MePyr) (3 and 10 mM), or vehicle alone (DMSO). Then, cells were fixed and subjected to immunocytochemical analyses. Normally growing HeLa cells were also analyzed (Control). Scale bar, 10 μm. (b) Measurements of the relative amounts of ATP per cell. HeLa cells were treated with tunicamycin (Tm, 0.5 μg/ml) for 24 hours in the presence of KUSs (50 μM) or ATP (0.1 and 1 mM), or vehicle alone (DMSO), and were harvested. Then, ATP amounts from 1.5 × 10^5 cells were measured. * P < 0.05, ** P < 0.01. Error bars indicate SD. (c) Western blot analyses on CHOP. HeLa cells were treated with 0.5 μg/ml of tunicamycin for 5 hours in the presence of KUSs (50 μM), ATP (0.1, 0.3, and 1 mM), methylpyruvate (MePyr) (3 and 10 mM), or vehicle alone (-). Then, cells were harvested and subjected to western blot analyses. Actin served as a loading control. Complete scans of the different blots are presented in Supplementary Fig. 9.

Data set [4] deals with cellular VCP functions. The experiment in a line: immunoblot of ubiquitinated proteins, CHOP (ER stress) and LC3 (autophagy) in cultured cells. Type of data set: cell-based.
Description: as §1

In data set [5] the test system is C57BL/6 wild-type mice. In words: electroretinogram of adult wild-type mice administered KUS. It counts as in vivo, mouse. On the procedure:
Electroretinogram recording was performed to assess the visual function of rd10 mice at ages of 21, 25, 29, and 33 days. Mice were dark-adapted overnight before anesthetization. Electroretinograms were recorded using a gold loop corneal electrode with a light-emitting diode (Mayo Corp., Inazawa, Japan). A reference electrode was placed in the mouth and a ground electrode was inserted to the anus. Stimuli were produced with a light emitting diode stimulator (Mayo Corp.). The electroretinogram response signals were amplified, digitized at 10 kHz with a band-pass filter of 0.3 to 500 Hz, and analyzed (PowerLab 2/25; AD instruments, New South Wales, Australia). The a- and b-wave amplitudes and a-wave latency of the mixed cone and rod response (ISCEV (International Society for Clinical Electrophysiology of Vision) standard; scotopic 3.0)[34] were analyzed.
Supplementary Figure 6 (a) Time-dependent changes of b-wave amplitude in dark-adapted electroretinograms in non-treated C57BL/6 wild-type mice. b-wave […]
= 0.004. (b, c) a-wave (b) and b-wave (c) amplitude of adult C57BL/6 wild-type mice administered saline or KUS121 for 7 days. […]
amplitudes of a-and b-waves between mice administered saline or KUS121 (a-wave […]
92.9 vs. 420.8 ± 52.6, P = 0.86, t-test). Error bars indicate SD.
Lane 1, 1µM MG132; lane 2, control; lane 3, 5µM DBeQ; lane 4, 10µM DBeQ; lane 5, 15µM DBeQ; lane 6: KUS11; lane 7, KUS31; lane 8, KUS69; lane 9, KUS 94; lane 10, […]
Lane 1, Tm(-); lane 2, control; lane 3, KUS69; lane 4, KUS94; lane 5, KUS121; lane 6, KUS187; lane 7, Tm(-); lane 8, control; lane 9, 0.1mM ATP; lane 10, 0.3mM ATP; lane 11, 1mM ATP; lane 12, 3mM methylpyruvate; lane 13, 10mM methylpyruvate.

Data set [6] deals with whole cell soluble lysate of neuronally differentiated PC12 cells. The experiment in a line: total ATPase activity in clarified whole cell lysates. It counts as biochemical. On the procedure: Figure 3 Effects of KUSs on ATPase activities, ATP levels, and acetyl-CoA levels. (a) Inhibition of ATPase activity in clarified whole cell lysates by KUS121, KUS187, and KUS94, but not KUS11. Total ATPase activities in clarified whole cell lysates from differentiated PC12 cells were measured in the absence and presence of KUSs. Relative ATPase activities are shown with values in the absence of KUS (D: DMSO) set at 100%. (b) HeLa cells were cultured in medium with low glucose (0.25 g/l) for 20 hours, with or without KUSs, and ATP levels were measured with luciferase assays. (c) HeLa cells were cultured in medium with low glucose (0.25 g/l) for 20 hours, with or without KUSs, and acetyl-CoA levels were measured. * P < 0.05, ** P < 0.01, *** P < 0.001 vs. DMSO control (Dunnett's test, n = 3).
We measured ATPase activities by modifying the molybdate assay, which was as described previously. In the assay, 1 μg of whole cell soluble lysate of neuronally differentiated PC12 cells, or 500 ng recombinant VCP protein, was incubated in 20 μl of the ATPase assay buffer (20 mM HEPES (pH 7.4), 50 mM KCl, 5 mM MgCl2) with 100 μM [γ-^32P]ATP (18.5 GBq/mmol) (PerkinElmer) at 37°C for 20 min. After incubation, the reaction was quenched by addition of 200 μl of 8% ice-cold trichloroacetic acid solution with 1 mM K2HPO4, and then 50 μl of solution A (3.75% ammonium molybdate, 0.02 M silicotungstic acid in 3 N H2SO4) and 300 μl of n-butyl acetate were added to the reaction. The samples were mixed well and centrifuged at 12,000 × g for 1 min. Then, 200 μl aliquots from the upper organic phases were taken and their radioactivity was determined with a liquid scintillation counter for β-radiation, which determined the amounts of ^32P released.

As for `Cc1cc(F)ccc1-c1ccc(/N=N/c2cc(S(=O)(=O)O)c3ccccc3c2N)cn1` [KUS121], the “induction of cell death” value in data set [1] was “did not induce any of these phenotypes”. Besides, in data set [2], the apparent cellular toxicity result was “did not manifest any apparent cellular toxicity”. The “aggregation of laminin γ1” value in data set [3] is “clearly prevented the aggregation of laminin γ1”. For the same molecule, the “induction of accumulation of ubiquitinated proteins, ER stress (CHOP), autophagy (LC3)” value in data set [4] is given as “did not induce any of these phenotypes”. In data set [5] (adult C57BL/6 wild-type mice, KUS121 for 7 days, saline 203.5 ± 41.6, P = 0.56, in µV (unit assumed)), this molecule showed an a-wave amplitude of 195.8 ± 30.2. Also, in data set [5] (adult C57BL/6 wild-type mice, KUS121 for 7 days, saline 425.8 ± 92.9, P = 0.86, in µV (unit assumed)), the b-wave amplitude came to 420.8 ± 52.6. Also, the “change in the amplitude of a- and b-waves vs saline” value in data set [5] (adult wild-type mice) is “no significant differences”. The “lowering of total ATPase activity” value in data set [6] (100 nM compound) is listed as “approximately 20%”; in data set [6] (1 μM compound) it was roughly 40%.
